Data as given in patent US20240317716A1, “METHOD FOR PREPARING XANTHINE OXIDASE INHIBITOR” (LG CHEM, LTD., priority 2021, published 2024).
In brackets after ≈: the same amount, converted by molar mass.

Experiment: Solubility of 1-(3-cyano-1-isopropyl-indol-5-yl)pyrazole-4-carboxylic acid in organic solvents
Format: physicochemical
Settings: organic solvent or mixture

solubility (in ACN): ≤ 100 µg/mL
solubility (in EtOAc): ≤ 100 µg/mL
solubility (in MeOH): ≤ 100 µg/mL
solubility (in acetone): 100 to 1000 µg/mL (≈ 340 to 3400 µM)
SMILES: CC(C)n1cc(C#N)c2cc(-n3cc(C(=O)O)cn3)ccc21 [1-(3-Cyano-1-isopropyl-indol-5-yl)pyrazole-4-carboxylic acid]
